Laboratory results as given in patent US12173309B2, “Compounds for increasing genome editing efficiency” (Max-Planck-Gesellschaft zur Förderung der Wissenschaften …, priority 2017, dated 2024).
Entries after “also recorded” stand apart in the source; their conditions may differ.

Experiments:
[1] = tested on: HEK293A cells; conditions: literature; RS-1 with dsODN donors, control 3.5%; cited from earlier work
[2] = tested on: 409-B2 iCRISPR-Cas9D10A iPSCs; assay: Precise genome editing (PGE) efficiency with iCRISPR Cas9D10A double nicking and ssODN donors, Illumina sequencing/CRISPResso; assay type: cell-based, human; conditions: for effect on PGE frequency over CALD1, KATNA1 and SLITRK1 compared to controls: 1 μM NSC 19630, 20 μM AICAR, 1 μM RS-1, 1 μM Resveratrol, 1 μM SCR7, 5 μM L755507, 5 μM STL127685, 20 μM B02; for effect on PGE efficiency with ssODN (discussion summary): nuclease not stated; for effect on PGE of further addition to the mix of NU7026, TSA and MLN4924: all loci, 5 μM NSC 15520, then 1 μM NSC 19630, 20 μM AICAR, 1 μM RS-1 (FIG. 5A); for PGE increase (mean change vs control): 20 μM NU7026, 0.01 μM TSA, 0.5 μM MLN4924, 5 μM NSC 15520, CRISPY mix = all four
Description: (§1) FIG. 1: Genome editing and analysis flowchart. iCRISPR 409-B2 iPSCs are treated with 2 μg/ml doxycycline at least for 2 days to induce Cas9 or Cas9D10A expression. Reverse transfection with RNAiMAX, gRNA (7.5 nM each), ssODN (10 nM) and the small molecules to be evaluated is carried out in a 96 well plate for 1 day. The amount of cells used gives ˜80% confluency. Cells are then expanded for 3 days with regular media change. After harvest follows DNA extraction, PCR amplification of targeted loci, Illumina sequencing and CRISPResso (Pinello et al. 2016) sequence analysis for amount of indels and precise genome editing.
(§2) Cells were incubated with media containing 2 μg/ml doxycycline (Clontech, 631311) 2 days prior to lipofection. Lipofection (reverse transfection) was done using the alt-CRISPR manufacturer's protocol (IDT) with a final concentration of 7.5 nM of each gRNA and 10 nM of the respective ssODN. In brief, 0.75 μl RNAiMAX (Invitrogen, 13778075) and the respective oligonucleotides were separately diluted in 25 μl OPTI-MEM (Gibco, 1985-062) each and incubated at room temperature for 5 min. Both dilutions were mixed to yield 50 μl of OPTI-MEM including RNAiMAX, gRNAs and ssODNs. The lipofection mix was incubated for 20-30 min at room temperature. During incubation cells were dissociated using EDTA for 5 min and counted using the Countess Automated Cell Counter (Invitrogen). The lipofection mix, 100 μl containing 25.000 dissociated cells in mTeSR1 supplemented with Y-27632, 2 μg/ml doxycycline and the respective small molecule(s) to be tested were throughoutly mixed and put in one well of a 96 well covered with Matrigel Matrix (Corning, 35248). Media was exchanged to regular mTeSR1 media after 24 hours.
(§3) Three days after lipofection cells were dissociated using Accutase (SIGMA, A6964), pelleted, and resuspended in 15 μl QuickExtract (Epicentre, QE0905T). Incubation at 65° C. for 10 min, 68° C. for 5 min and finally 98° C. for 5 min was performed to yield ssDNA as a PCR template. Primers for each targeted loci of CALD1, KATNA1 and SLITRK1 containing adapters for Illumina sequencing were ordered from IDT (Coralville, USA). PCR was done in a T100 Thermal Cycler (Bio-Rad) using the KAPA2G Robust PCR Kit (Peqlab, 07-KK5532-03) with supplied buffer B and 3 μl of cell extract in a total volume of 25 μl. The thermal cycling profile of the PCR was: 95° C. 3 min; 34×(95° 15 sec, 65° C. 15 sec, 72° C. 15 sec); 72° C. 60 sec. P5 and P7 Illumina adapters with sample specific indices were added in a second PCR reaction (Kircher et al. 2012) using Phusion HF MasterMix (Thermo Scientific, F-531L) and 0.3 μl of the first PCR product. The thermal cycling profile of the PCR was: 98° C. 30 sec; 25× (98° 10 sec, 58° C. 10 sec, 72° C. 20 sec); 72° C. 5 min. Amplifications were verified by size separating agarose gel electrophoresis using EX gels (Invitrogen, G4010-11). The indexed amplicons were purified using Solid Phase Reversible Immobilization (SPRI) beads (Meyer, Kircher 2010). Double-indexed libraries were sequenced on a MiSeq (Illumina) giving paired-end sequences of 2×150 bp. After base calling using Bustard (Illumina) adapters were trimmed using leeHom (Renaud et al. 2014).
(§4) CRISPresso (Pinello et al. 2016) was used to analyse sequencing data from CRISPR genome editing experiments for percentage of wildtype, targeted nucleotide substitutions (TNS), indels and mix of TNS and indels. Parameters used for analysis were ‘-w 20’, ‘--min_identity_score 70’ and ‘--ignore_substitutions’ (analysis was restricted to amplicons with a minimum of 70% similarity to the wildtype sequence and to a window of 20 bp from each gRNA; substitutions were ignored, as sequencing errors would be falsely characterized as NHEJ-events). Sequencing data from colonies after single cell seeding (FIGS. 3B and C) was further analyzed by evaluating the actual read sequences using SAMtools. Clonal colonies were differentiated from mixed colonies using sequence read proportions. […]

[3] = tested on: mouse ESCs; conditions: literature; dsODN donors, control 17.7%; cited from earlier work
[4] = tested on: 409-B2 iCRISPR-Cas9 iPSCs; assay: PGE efficiency with iCRISPR Cas9 and ssODN donors; assay type: cell-based, human; conditions: 0.01 μM TSA, 0.5 μM MLN4924, 1 μM NSC 19630, 20 μM AICAR, 1 μM RS-1, 1 μM Resveratrol, 1 μM SCR7, 5 μM L755507, 5 μM STL127685, 20 μM B02
Description: as §1, §2, §3, §4

[5] = tested on: human stem cells; conditions: literature; cited from earlier work
[6] = target: human LIG4 (Homo sapiens, UniProt P49917); conditions: literature (Greco et al. 2016); cited from earlier work
[7] = tested on: rabbit embryos; conditions: literature; RS-1 with dsODN donors, control 4.4%; cited from earlier work
[8] = tested on: U2OS cells; conditions: literature; dsODN donors, control 1.9%; cited from earlier work
[9] = tested on: porcine fetal fibroblasts; conditions: literature; ssODN donors; cited from earlier work
[10] = tested on: 409-B2 iCRISPR Cas9D10A iPSCs; assay: Cell death by phase contrast light microscopy in first concentration screen; assay type: cell-based, human
Source text: FIGS. 3A-3D: First screen for solvent effect and influence of different small molecule concentrations on genome edit-ing of CALD1, KATNA1 and SLITRK1 with iCRISPR Cas9D10A. Shown are precise genome editing (PGE) and indels with green circles (triangles) or blue diamonds, respectively. Each symbol represents a technical replicate. The respective means are shown as a black line. Each skull indicates cell death of up to 20% determined by phase contrast light microscopy.

Chain of human LIG4 (P49917 whole entry): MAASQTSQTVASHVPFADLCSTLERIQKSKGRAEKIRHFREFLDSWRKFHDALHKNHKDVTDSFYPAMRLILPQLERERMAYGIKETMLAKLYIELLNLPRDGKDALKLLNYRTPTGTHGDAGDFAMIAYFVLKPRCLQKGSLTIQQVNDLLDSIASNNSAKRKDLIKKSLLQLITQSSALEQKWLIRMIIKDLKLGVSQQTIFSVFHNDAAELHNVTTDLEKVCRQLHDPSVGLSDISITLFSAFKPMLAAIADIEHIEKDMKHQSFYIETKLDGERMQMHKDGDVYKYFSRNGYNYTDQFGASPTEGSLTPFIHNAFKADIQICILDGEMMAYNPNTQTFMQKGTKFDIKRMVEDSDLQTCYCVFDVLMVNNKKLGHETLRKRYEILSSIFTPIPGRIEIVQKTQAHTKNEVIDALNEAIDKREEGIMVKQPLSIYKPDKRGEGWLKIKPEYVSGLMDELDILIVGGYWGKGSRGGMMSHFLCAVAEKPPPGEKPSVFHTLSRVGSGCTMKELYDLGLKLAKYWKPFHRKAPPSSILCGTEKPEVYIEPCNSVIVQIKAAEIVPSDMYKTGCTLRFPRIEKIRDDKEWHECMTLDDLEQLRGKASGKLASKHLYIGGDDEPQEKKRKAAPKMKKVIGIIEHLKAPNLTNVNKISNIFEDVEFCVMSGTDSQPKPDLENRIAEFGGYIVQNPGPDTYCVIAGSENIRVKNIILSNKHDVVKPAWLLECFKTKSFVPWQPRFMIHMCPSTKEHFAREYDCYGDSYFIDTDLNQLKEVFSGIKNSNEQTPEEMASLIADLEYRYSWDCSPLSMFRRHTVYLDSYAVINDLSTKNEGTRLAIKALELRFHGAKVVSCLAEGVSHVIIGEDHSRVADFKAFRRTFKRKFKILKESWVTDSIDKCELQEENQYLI
Chain of human LIG4 (Q13426 whole entry partner): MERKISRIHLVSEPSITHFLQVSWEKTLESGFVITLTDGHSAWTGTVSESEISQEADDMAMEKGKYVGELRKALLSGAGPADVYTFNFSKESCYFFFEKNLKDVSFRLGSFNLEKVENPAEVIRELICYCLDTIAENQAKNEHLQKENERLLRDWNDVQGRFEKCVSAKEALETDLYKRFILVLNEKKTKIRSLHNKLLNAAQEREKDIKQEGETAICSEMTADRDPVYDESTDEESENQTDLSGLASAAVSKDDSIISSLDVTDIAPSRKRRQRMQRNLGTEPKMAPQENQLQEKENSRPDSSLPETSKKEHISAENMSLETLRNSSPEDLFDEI

Row | SMILES | PGE [1] | effect on PGE frequency over CALD1, KATNA1 and SLITRK1 compared to controls ([2]; Cas9D10A) | effect on PGE frequency over CALD1, KATNA1 and SLITRK1 compared to controls [4] | effect on PGE efficiency with ssODN (discussion summary) [2] | further results
1 | CCCCCCNC(=O)Nc1ccc(S(=O)(=O)Nc2ccc(CCNC[C@H](O)COc3ccc(O)cc3)cc2)cc1 [L755507] | did not find significant stimulation | no clear effect | no effect or a diminishing effect; also recorded: no clear effect |  | PGE [3]: 33.3%
2 | O=c1c2ccccc2nc(/C=C/c2cccnc2)n1Cc1ccccc1 [B02] |  | halved | halved | halved | 
3 | NC(=O)c1ncn([C@@H]2O[C@H](CO)[C@@H](O)[C@H]2O)c1N [AICAR] |  | no clear effect | no effect or a diminishing effect | no effect | effect on PGE of further addition to the mix of NU7026, TSA and MLN4924 ([2]; Cas9D10A): no measurable effect
4 | O=c1[nH]c(=S)[nH]c(N=Cc2ccccc2)c1N=Cc1ccccc1 [SCR7] | marginal but significant increase | no clear effect | no effect or a diminishing effect; also recorded: no clear effect |  | effect on PGE [5]: no significant effect; inhibition of human LIG4 [6]: neither selective nor potent; PGE [7]: no significant effect
5 | O=C(Nc1ccc(Br)cc1)c1ccc(Br)c(S(=O)(=O)NCc2ccccc2)c1 [RS-1] | 21% | no clear effect | no effect or a diminishing effect; also recorded: no clear effect | no beneficial effect | effect on PGE of further addition to the mix of NU7026, TSA and MLN4924 ([2]; Cas9D10A): no measurable effect; PGE [8]: 2.4%; effect on PGE efficiency [9]: No effect; PGE [7]: 26.1%
6 | CC(/C=C/C(=O)NO)=C\[C@@H](C)C(=O)c1ccc(N(C)C)cc1 [TSA, Trichostatin A] |  |  | no enhancing effect |  | PGE increase (mean change vs control) ([2]; CALD1, Cas9D10A): 1.5 fold; higher PGE frequency than without the molecules ([2]; Cas9D10A, pooled across CALD1, KATNA1, SLITRK1 (FIG. 5A), p<0.001): 1.8 fold; PGE increase (mean change vs control) ([2]; KATNA1, Cas9D10A): 2.2 fold; PGE increase (mean change vs control) ([2]; SLITRK1, Cas9D10A): 1.8 fold; cell death ([10]; 0.1 μM): All cells died; cell death ([10]; 1 μM): All cells died
7 | Oc1ccc(C=Cc2cc(O)cc(O)c2)cc1 [Resveratrol] |  | no clear effect | no effect or a diminishing effect |  | 
